Source: PubChem BioAssay (NCI)
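Growth conditions: 96-well plates. Treatment: test compound, 48 hours, 5 concentrations. Analysis: linear interpolation between bracketing concentrations; unreached endpoints set to highest concentration. The concentration for 50% growth inhibition is given as GI50. TGI: total growth inhibition.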

Assays:
Assay in all cases: inhibition of tumour cell growth, NCI panel, 48 h
HT29 colon = test system: HT29 colon
MALME-3M melanoma = test system: MALME-3M melanoma
NCI-H460 lung = test system: NCI-H460 lung
RXF 393 renal = test system: RXF 393 renal
SF-295 CNS = test system: SF-295 CNS
SK-MEL-2 melanoma = test system: SK-MEL-2 melanoma
UACC-62 melanoma = test system: UACC-62 melanoma
UO-31 renal = test system: UO-31 renal
SK-OV-3 ovarian = test system: SK-OV-3 ovarian
SNB-75 CNS = test system: SNB-75 CNS

Structure (SMILES) | TGI (HT29 colon) | TGI (MALME-3M melanoma) | TGI (NCI-H460 lung) | TGI (RXF 393 renal) | TGI (SF-295 CNS) | TGI (SK-MEL-2 melanoma) | TGI (UACC-62 melanoma) | TGI (UO-31 renal) | GI50 (NCI-H460 lung) | GI50 (SF-295 CNS) | GI50 (SK-MEL-2 melanoma) | GI50 (SK-OV-3 ovarian) | TGI (SK-OV-3 ovarian) | GI50 (SNB-75 CNS) | TGI (SNB-75 CNS) | GI50 (UO-31 renal) | GI50 (HT29 colon) | GI50 (MALME-3M melanoma) | GI50 (RXF 393 renal) | GI50 (UACC-62 melanoma)
CCOC(=O)c1sc2nc(SC)nc(Nc3ccc4c(c3)OCCO4)c2c1N | 53.3 µM | 30.5 µM | > 100 µM | 16.9 µM | 58.1 µM | 33.7 µM | 23.5 µM | 36.7 µM | – | – | – | – | – | – | – | – | – | – | – | –
COc1ccc2c(c1)c(-c1nc(-c3c[nH]c4ncccc34)cs1)cn2CCCCN1CCCCC1 | – | – | 3.5 µM | – | 3.02 µM | 3.54 µM | – | 2.77 µM | 1.81 µM | 1.6 µM | 1.8 µM | 1.75 µM | 3.18 µM | 1.27 µM | 2.68 µM | 1.38 µM | – | – | – | –
Nc1nc(SCc2ccccc2Cl)c2[nH]cnc2n1 | – | > 100 µM | > 100 µM | > 100 µM | > 100 µM | > 100 µM | > 100 µM | > 100 µM | – | – | – | – | > 100 µM | – | – | – | – | – | – | –
CNC(C)C(O)c1ccc2oc3cc(=O)c4ccccc4c-3nc2c1 (centres undefined) | > 100 µM | 19.9 µM | 61.4 µM | 84.8 µM | 15.6 µM | 64.2 µM | 14.3 µM | 67 µM | – | – | – | – | > 100 µM | – | – | – | – | – | – | –
COc1ccc(C2COc3c(ccc(O)c3C)C2)cc1OC (centres undefined) | > 200 µM | > 200 µM | > 193 µM | 131 µM | > 176 µM | 154 µM | > 200 µM | 178 µM | – | – | – | – | > 200 µM | – | 110 µM | – | – | – | – | –
CCCn1cnc2c(SCc3ccc(Cl)cc3)nc(N)nc21 | 43.5 µM | 65.8 µM | 40.6 µM | > 100 µM | 45.9 µM | 41.3 µM | 52.8 µM | > 100 µM | – | – | – | – | > 100 µM | – | 88.7 µM | – | – | – | – | –
C=CCCC1(C)CCCNC1=S (centres undefined) | > 100 µM | > 100 µM | > 100 µM | > 100 µM | > 100 µM | > 100 µM | > 100 µM | > 100 µM | – | – | – | – | > 100 µM | – | > 100 µM | – | – | – | – | –
CN(C)CCNC(=O)c1cccc2[nH]c(-c3ccccn3)nc12 | > 66.7 µM | > 65.4 µM | > 58.4 µM | > 100 µM | > 100 µM | > 100 µM | 42.7 µM | > 72.4 µM | – | – | – | – | > 100 µM | – | 92.8 µM | – | – | – | – | –
Cc1nc2ccc(S(=O)(=O)Nc3nccs3)cc2c(=O)n1NS(=O)(=O)c1nccs1 | > 100 µM | > 100 µM | > 100 µM | > 100 µM | > 100 µM | > 100 µM | > 100 µM | > 100 µM | – | – | – | – | > 100 µM | – | > 100 µM | – | – | – | – | –
COc1ccc(/C=N/n2cnc3c(c2=O)SC(=C(C#N)C#N)N3c2ccccc2)cc1 | > 100 µM | – | > 100 µM | – | > 100 µM | – | > 100 µM | > 100 µM | – | – | – | – | > 100 µM | – | 72.4 µM | – | – | – | – | –
O=C(N[C@@H](Cc1coc2ccccc12)B(O)O)[C@@H]1C[C@H]2CC[C@@H]1O2 | > 100 µM | 20.8 µM | > 100 µM | 5.94 µM | 17.6 µM | > 100 µM | 55.2 µM | 11.3 µM | 30.7 µM | 3.93 µM | 6.08 µM | 9.17 µM | > 100 µM | 2.78 µM | 38.2 µM | 2 µM | 3.77 µM | 3.07 µM | 1.86 µM | 5.29 µM
